Test results: US20210137948A1, “TREATMENT OF INFECTIONS CAUSED BY NEISSERIA GONOCOCCUS USING A HALOGENATED SALICYLANILIDE” (priority 2018, published 2021)
Values after ≈ are worked out from the molar mass of the structure shown. Where two headings read alike, the source gives them in different places.

Experiments:
rats = details: cited from earlier work
mice = details: cited from earlier work
[1] = system: Neisseria gonorrhoeae CDC panel consisting of 48 isolates; assay: Agar dilution MIC, CDC panel of 48 isolates (Example 2); type: cell-based; details: for MIC: Neisseria gonorrhoeae, read-out: Minimal inhibitory concentration
Procedure: Neisseria gonorrhoeae (Neisseria gonocossus) were tested for antimicrobial susceptibility using agar dilution as described by the Clinical and Laboratory Standards Institute (CLSI), see reference (4).
The concentrations tested for each compound encompass the reported interpretive breakpoints and consist of 8 or more doubling dilutions, ensuring that there is one dilution below the lowest value of QC.
GC agar base +1% defined growth supplement.
Initial screening strains: Neisseria gonorrhoeae CDC panel consisting of 48 isolates. The strains were provided by Clinical and Environmental Microbiology Branch, Division of Healthcare Quality Promotion, CDC (Atlanta, US).
Dilution scheme for reference method: Prepare intermediate 100× antimicrobial agent solutions by making successive serial twofold dilutions. Then, add one part of the 100× antimicrobial solution to […] of molten agar. Plates containing no antimicrobial agent solutions are made for use as growth controls. It is important that no longer than one hour elapses between the time that the stock solution is thawed, the dilutions are prepared and added to the base medium and the plates are poured, see reference (5).
• Add appropriate dilutions of antimicrobial solution to molten test agars that have been allowed to equilibrate in a water bath to 50° C. • Mix the agar and antimicrobial solution thoroughly and pour (20 mL) into Petri dishes on a level surface. Pour quickly after mixing to prevent cooling and partial solidification in the mixing container. Avoid generating bubbles when mixing. • Allow the agar to solidify at room temperature and store them in sealed plastic bags at 2 to 8° C. for up to five days. Preferably use with 24 hours. • Allow plates stored at 2 to 8° C. to equilibrate to room temperature before use. Make certain that the agar surface is dry before inoculating the plates. If necessary, place the plates in an incubator or laminar flow hood for approximately 30 minutes with their lids ajar to hasten drying of the agar surface.
Inoculum preparation: Prepare a standardized inoculum for the agar dilution method by suspending isolated colonies of Neisseria gonorrhoeae selected from an 18-24 hour-old chocolate agar plate directly in Mueller Hinton Broth (MHB) to achieve the density equivalent to a 0.5 McFarland standard and adjusted to obtain a cell density of ˜1-2×10^8 CFU/mL. For N. gonorrhoeae, the McFarland solutions are made at a reading of ˜0.80 in densitometer (Grant Instruments DEN-1B Densitometer) because these values have been evaluated and correspond to the desired CFU/mL count.
Dilution of inoculum suspension: Cultures adjusted to the 0.5 McFarland standard contain approximately 1 to 2×10^8 CFU/mL with most species, and the final inoculum required is 10^4 CFU per spot. When using replicators with 3-mm pins that deliver ˜2.5 μL, dilute the 0.5 McFarland suspension 1:10 in sterile MHB to obtain a concentration of 10^7 CFU/mL. The final inoculum on the agar will be approximately 10^4 CFU per spot. Use the adjusted suspensions for final inoculation within 60 minutes of preparation, see reference (5).
The following procedure was followed: • Arrange the tubes containing the adjusted and diluted bacterial suspensions (10^7 CFU/mL) in order in a rack. Place an aliquot of each well-mixed suspension into the corresponding well in the replicator inoculum block (if being used). • Mark the agar plates for orientation of the inoculum spots. • Apply an aliquot of each inoculum (2.5 μL) to the agar surface, either with an inocula-replicating device or pipette, to obtain a final concentration of ˜10^4 CFU/spot. • Inoculate a growth-control plate (no antimicrobial agent) first and then, starting with the lowest concentration, inoculate the plates containing the different antimicrobial concentrations. […]

Cc1cc(C(C#N)c2ccc(Cl)cc2)c(Cl)cc1NC(=O)c1cc(I)cc(I)c1O (stereo not drawn) [Closantel, closantel]
LD50, median (rats; p.o., median of the studies): 302 mg/kg | LD50 (rats; p.o.): 262 to 342 mg/kg | LD50 (rats; s.c.): 67 mg/kg | LD50 (mice; i.m.): 57 mg/kg | LD50 (mice; p.o.): 331 mg/kg | MIC ([1]; Neisseria gonorrhoeae strain CDC # 165): 8 µg/mL (≈ 12.1 µM) | MIC ([1]; Neisseria gonorrhoeae strain CDC # 166): ≤ 0.25 µg/mL | MIC ([1]; Neisseria gonorrhoeae strain CDC # 167): ≤ 0.25 µg/mL | MIC ([1]; Neisseria gonorrhoeae strain CDC # 169): ≤ 0.25 µg/mL | MIC ([1]; Neisseria gonorrhoeae strain CDC # 170): ≤ 0.25 µg/mL | MIC ([1]; Neisseria gonorrhoeae strain CDC # 171): ≤ 0.25 µg/mL | MIC ([1]; Neisseria gonorrhoeae strain CDC # 172): ≤ 0.25 µg/mL | MIC ([1]; Neisseria gonorrhoeae strain CDC # 173): 0.5 µg/mL (≈ 0.754 µM) | MIC ([1]; Neisseria gonorrhoeae strain CDC # 174): ≤ 0.25 µg/mL | MIC ([1]; Neisseria gonorrhoeae strain CDC # 175): ≤ 0.25 µg/mL | MIC ([1]; Neisseria gonorrhoeae strain CDC # 176): ≤ 0.25 µg/mL | MIC ([1]; Neisseria gonorrhoeae strain CDC # 177): 4 µg/mL (≈ 6.03 µM) | MIC ([1]; Neisseria gonorrhoeae strain CDC # 178): ≤ 0.25 µg/mL | MIC ([1]; Neisseria gonorrhoeae strain CDC # 179): ≤ 0.25 µg/mL | MIC ([1]; Neisseria gonorrhoeae strain CDC # 180): ≤ 0.25 µg/mL | MIC ([1]; Neisseria gonorrhoeae strain CDC # 181): ≤ 0.25 µg/mL | MIC ([1]; Neisseria gonorrhoeae strain CDC # 182): ≤ 0.25 µg/mL | MIC ([1]; Neisseria gonorrhoeae strain CDC # 183): ≤ 0.25 µg/mL | MIC ([1]; Neisseria gonorrhoeae strain CDC # 184): ≤ 0.25 µg/mL | MIC ([1]; Neisseria gonorrhoeae strain CDC # 185): ≤ 0.25 µg/mL | MIC ([1]; Neisseria gonorrhoeae strain CDC # 186): ≤ 0.25 µg/mL | MIC ([1]; Neisseria gonorrhoeae strain CDC # 187): ≤ 0.25 µg/mL | MIC ([1]; Neisseria gonorrhoeae strain CDC # 188): ≤ 0.25 µg/mL | MIC ([1]; Neisseria gonorrhoeae strain CDC # 189): ≤ 0.25 µg/mL | MIC ([1]; Neisseria gonorrhoeae strain CDC # 190): ≤ 0.25 µg/mL | MIC ([1]; Neisseria gonorrhoeae strain CDC # 191): ≤ 0.25 µg/mL | MIC ([1]; Neisseria gonorrhoeae strain CDC # 192): ≤ 0.25 µg/mL | MIC ([1]; Neisseria gonorrhoeae strain CDC # 193): ≤ 0.25 µg/mL | MIC ([1]; Neisseria gonorrhoeae strain CDC # 194): ≤ 0.25 µg/mL | MIC ([1]; Neisseria gonorrhoeae strain CDC # 195): ≤ 0.25 µg/mL | MIC ([1]; Neisseria gonorrhoeae strain CDC # 196): ≤ 0.25 µg/mL | MIC ([1]; Neisseria gonorrhoeae strain CDC # 198): ≤ 0.25 µg/mL | MIC ([1]; Neisseria gonorrhoeae strain CDC # 199): ≤ 0.25 µg/mL | MIC ([1]; Neisseria gonorrhoeae strain CDC # 200): ≤ 0.25 µg/mL | MIC ([1]; Neisseria gonorrhoeae strain CDC # 201): ≤ 0.25 µg/mL | MIC ([1]; Neisseria gonorrhoeae strain CDC # 202): ≤ 0.25 µg/mL | MIC ([1]; Neisseria gonorrhoeae strain CDC # 203): ≤ 0.25 µg/mL | MIC ([1]; Neisseria gonorrhoeae strain CDC # 204): 0.5 µg/mL (≈ 0.754 µM) | MIC ([1]; Neisseria gonorrhoeae strain CDC # 205): ≤ 0.25 µg/mL | MIC ([1]; Neisseria gonorrhoeae strain CDC # 206): ≤ 0.25 µg/mL | MIC ([1]; Neisseria gonorrhoeae strain CDC # 207): ≤ 0.25 µg/mL | MIC ([1]; Neisseria gonorrhoeae strain CDC # 208): ≤ 0.25 µg/mL | MIC ([1]; Neisseria gonorrhoeae strain CDC # 209): ≤ 0.25 µg/mL | MIC ([1]; Neisseria gonorrhoeae strain CDC # 210): ≤ 0.25 µg/mL | MIC ([1]; Neisseria gonorrhoeae strain CDC # 211): ≤ 0.25 µg/mL | MIC ([1]; Neisseria gonorrhoeae strain CDC # 212): ≤ 0.25 µg/mL | MIC ([1]; Neisseria gonorrhoeae strain CDC # 213): ≤ 0.25 µg/mL | MIC ([1]; Neisseria gonorrhoeae strain CDC # 214): ≤ 0.25 µg/mL | in vitro activity (in words) ([1]; against N. gonococcus (N. gonorrhoeae), Example 2 conclusion): Good in vitro activity
